Patent US12077503B2, “Substituted cyclic amides and their use as herbicides” (FMC CORPORATION, priority 2015, dated 2024)

Key:
Format in all cases: in vivo
Kochia (Kochia scoparia) [1] = assay: Test A postemergence; details: for Kochia plant response rating: 125 g ai/ha, postemergence, visual injury rating on 0 to 100 scale (0 no effect, 100 complete control), approx. 10 d; for Plant response rating, Kochia: Postemergence, 500 g ai/ha, 0 to 100 scale where 0 is no effect and 100 is complete control
Procedure, shortened: (§1)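 Each rating is a visual injury score from 0 to 100 given about 10 d after treatment, judged against untreated controls kept alongside in the greenhouse. In loam soil–sand blend, seeds got a preemergence directed soil spray, while postemergence plants were 2 to 10 cm tall at spraying.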

[2] = tested on: blackgrass (Alopecurus myosuroides); assay: Test A postemergence; details: postemergence; for Blackgrass plant response rating: 125 g ai/ha, visual injury rating on 0 to 100 scale (0 no effect, 100 complete control), approx. 10 d; for Plant response rating, Blackgrass: 500 g ai/ha, 0 to 100 scale, 0 no effect, 100 complete control
Procedure, shortened: as §1

corn (Zea mays) = assay: Test A postemergence; details: postemergence; for Corn plant response rating: 125 g ai/ha, visual injury rating on 0 to 100 scale (0 no effect, 100 complete control), approx. 10 d; for Plant response rating, Corn: 500 g ai/ha, 0 to 100 scale, 0 no effect, 100 complete control
Procedure, shortened: as §1

[3] = tested on: giant foxtail (Setaria faberii); assay: Test A postemergence; details: for Foxtail, Giant plant response rating: 125 g ai/ha, postemergence, visual injury rating on 0 to 100 scale (0 no effect, 100 complete control), approx. 10 d; for Plant response rating, Foxtail, Giant: Postemergence, 500 g ai/ha, 0 to 100 scale where 0 is no effect and 100 is complete control
Procedure, shortened: as §1

[4] = tested on: ryegrass, Italian (Italian ryegrass, Lolium multiflorum); assay: Test A postemergence; details: for Ryegrass, Italian plant response rating: 125 g ai/ha, postemergence, visual injury rating on 0 to 100 scale (0 no effect, 100 complete control), approx. 10 d; for Plant response rating, Ryegrass, Italian: Postemergence, 500 g ai/ha, 0 to 100 scale where 0 is no effect and 100 is complete control
Procedure, shortened: as §1

[5] = tested on: Galium (catchweed bedstraw, Galium aparine); assay: Test A postemergence; details: for Galium plant response rating: 125 g ai/ha, postemergence, visual injury rating on 0 to 100 scale (0 no effect, 100 complete control), approx. 10 d; for Plant response rating, Galium: Postemergence, 500 g ai/ha, 0 to 100 scale where 0 is no effect and 100 is complete control
Procedure, shortened: as §1

[6] = tested on: ragweed (common ragweed, Ambrosia elatior); assay: Test A postemergence; details: for Ragweed plant response rating: 125 g ai/ha, postemergence, visual injury rating on 0 to 100 scale (0 no effect, 100 complete control), approx. 10 d; for Plant response rating, Ragweed: Postemergence, 500 g ai/ha, 0 to 100 scale where 0 is no effect and 100 is complete control
Procedure, shortened: as §1

[7] = tested on: wheat (Triticum aestivum); assay: Test A postemergence; details: for Wheat plant response rating: 125 g ai/ha, postemergence, visual injury rating on 0 to 100 scale (0 no effect, 100 complete control), approx. 10 d; for Plant response rating, Wheat: Postemergence, 500 g ai/ha, 0 to 100 scale where 0 is no effect and 100 is complete control
Procedure, shortened: as §1

[8] = tested on: barnyardgrass (Echinochloa crus-galli); assay: Test A postemergence; details: postemergence; for Barnyardgrass plant response rating: 125 g ai/ha, visual injury rating on 0 to 100 scale (0 no effect, 100 complete control), approx. 10 d; for Plant response rating, Barnyardgrass: 500 g ai/ha, 0 to 100 scale, 0 no effect, 100 complete control
Procedure, shortened: as §1

[9] = tested on: pigweed (Amaranthus retroflexus); assay: Test A postemergence; details: for Pigweed plant response rating: 125 g ai/ha, postemergence, visual injury rating on 0 to 100 scale (0 no effect, 100 complete control), approx. 10 d; for Plant response rating, Pigweed: Postemergence, 500 g ai/ha, 0 to 100 scale where 0 is no effect and 100 is complete control
Procedure, shortened: as §1

Kochia (Kochia scoparia) [10] = assay: Test A preemergence; details: for Plant response rating, Kochia: 125 g ai/ha, preemergence, 0 to 100 scale (0 no effect, 100 complete control); for Kochia plant response rating (0 to 100 scale, 0 is no effect, 100 is complete control): Preemergence, 500 g ai/ha, visual injury approx. 10 d
Procedure, shortened: as §1

[11] = tested on: giant foxtail (Setaria faberii); assay: Test A preemergence; details: for Plant response rating, Foxtail, Giant: 125 g ai/ha, preemergence, 0 to 100 scale (0 no effect, 100 complete control); for Foxtail, Giant plant response rating (0 to 100 scale, 0 is no effect, 100 is complete control): Preemergence, 500 g ai/ha, visual injury approx. 10 d
Procedure, shortened: as §1

[12] = tested on: ryegrass, Italian (Italian ryegrass, Lolium multiflorum); assay: Test A preemergence; details: Preemergence; for Plant response rating, Ryegrass, Italian: 125 g ai/ha, visual injury after approximately 10 d, 0 to 100 scale where 0 is no effect and 100 is complete control; for Ryegrass, Italian plant response rating (0 to 100 scale, 0 is no effect, 100 is complete control): 500 g ai/ha, visual injury approx. 10 d
Procedure, shortened: as §1

[13] = tested on: ragweed (common ragweed, Ambrosia elatior); assay: Test A preemergence; details: Preemergence; for Plant response rating, Ragweed: 125 g ai/ha, visual injury after approximately 10 d, 0 to 100 scale where 0 is no effect and 100 is complete control; for Ragweed plant response rating (0 to 100 scale, 0 is no effect, 100 is complete control): 500 g ai/ha, visual injury approx. 10 d
Procedure, shortened: as §1

[14] = tested on: barnyardgrass (Echinochloa crus-galli); assay: Test A preemergence; details: for Plant response rating, Barnyardgrass: 125 g ai/ha, preemergence, 0 to 100 scale (0 no effect, 100 complete control); for Barnyardgrass plant response rating (0 to 100 scale, 0 is no effect, 100 is complete control): Preemergence, 500 g ai/ha, visual injury approx. 10 d
Procedure, shortened: as §1

[15] = tested on: pigweed (Amaranthus retroflexus); assay: Test A preemergence; details: Preemergence; for Plant response rating, Pigweed: 125 g ai/ha, visual injury after approximately 10 d, 0 to 100 scale where 0 is no effect and 100 is complete control; for Pigweed plant response rating (0 to 100 scale, 0 is no effect, 100 is complete control): 500 g ai/ha, visual injury approx. 10 d
[16] = tested on: sedge, umbrella (small-flower umbrella sedge, Cyperus difformis); assay: Test B flooded paddy test; details: Flood, 250 g ai/ha; 0 to 100 scale where 0 is no effect and 100 is complete control; 13 to 15 d
Procedure, shortened: (§2)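 Rating scale 0–100 (visual, vs untreated controls) after a 13–15 d greenhouse period; application to the flood layer, 3 cm above soil and maintained; plants at 2-leaf stage when treated.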

[17] = tested on: barnyardgrass (Echinochloa crus-galli); assay: Test B flooded paddy test; details: Flood, 250 g ai/ha; 0 to 100 scale where 0 is no effect and 100 is complete control; 13 to 15 d
Procedure, shortened: as §2

rice (Oryra sativa) = assay: Test B flooded paddy test; details: Flood, 250 g ai/ha; 0 to 100 scale where 0 is no effect and 100 is complete control; 13 to 15 d
Procedure, shortened: as §2

[18] = tested on: ducksalad (Heteranthera limosa); assay: Test B flooded paddy test; details: Flood, 250 g ai/ha; 0 to 100 scale where 0 is no effect and 100 is complete control; 13 to 15 d
Procedure, shortened: as §2

| SMILES | Kochia plant response rating (Kochia (Kochia scoparia) [1]) | Plant response rating, Kochia (Kochia (Kochia scoparia) [1]) | Blackgrass plant response rating [2] | Plant response rating, Blackgrass [2] | Corn plant response rating (corn (Zea mays)) | Plant response rating, Corn (corn (Zea mays)) | Foxtail, Giant plant response rating [3] | Plant response rating, Foxtail, Giant [3] | Ryegrass, Italian plant response rating [4] | Plant response rating, Ryegrass, Italian [4] | Galium plant response rating [5] | Plant response rating, Galium [5] | Ragweed plant response rating [6] | Plant response rating, Ragweed [6] | Wheat plant response rating [7] | Plant response rating, Wheat [7] | Barnyardgrass plant response rating [8] | Plant response rating, Barnyardgrass [8] | Pigweed plant response rating [9] | Plant response rating, Pigweed [9] | further results |
| --- | --- | --- | --- | --- | --- | --- | --- | --- | --- | --- | --- | --- | --- | --- | --- | --- | --- | --- | --- | --- | --- |
| CC(C)=CCN1CC(c2cccc(C(F)(F)F)c2)C(C(=O)Nc2ccccc2F)C1=O (stereo not drawn) [Compound 478] | 0 | 0 | 0 | 20 | 0 | 0 | 20 | 60 | 0 | 20 | 0 | 0 | 0 | 0 | 0 | 20 | 30 | 60 | 0 | 0 | Plant response rating, Kochia (Kochia (Kochia scoparia) [10]): 0; Kochia plant response rating (0 to 100 scale, 0 is no effect, 100 is complete control) (Kochia (Kochia scoparia) [10]): 0; Plant response rating, Foxtail, Giant [11]: 70; Foxtail, Giant plant response rating (0 to 100 scale, 0 is no effect, 100 is complete control) [11]: 80; Plant response rating, Ryegrass, Italian [12]: 0; Ryegrass, Italian plant response rating (0 to 100 scale, 0 is no effect, 100 is complete control) [12]: 0; Plant response rating, Ragweed [13]: 0; Ragweed plant response rating (0 to 100 scale, 0 is no effect, 100 is complete control) [13]: 0; Plant response rating, Barnyardgrass [14]: 20; Barnyardgrass plant response rating (0 to 100 scale, 0 is no effect, 100 is complete control) [14]: 60; Plant response rating, Pigweed [15]: 0; Pigweed plant response rating (0 to 100 scale, 0 is no effect, 100 is complete control) [15]: 0; Plant response rating, Sedge, Umbrella [16]: 0; Plant response rating, Barnyardgrass [17]: 0; Plant response rating, Rice (rice (Oryra sativa)): 0; Plant response rating, Ducksalad [18]: 0 |
| C=C(C)CN1CC(c2cccc(C(F)(F)F)c2)C(C(=O)Nc2cccc(F)c2F)C1=O (stereo not drawn) [Compound 479] | 0 | 0 | 0 | 40 | 0 | 0 | 0 | 60 | 0 | 0 | 0 | 0 | 0 | 0 | 0 | 40 | 0 | 50 | 0 | 0 | Plant response rating, Kochia (Kochia (Kochia scoparia) [10]): 0; Kochia plant response rating (0 to 100 scale, 0 is no effect, 100 is complete control) (Kochia (Kochia scoparia) [10]): 0; Plant response rating, Foxtail, Giant [11]: 80; Foxtail, Giant plant response rating (0 to 100 scale, 0 is no effect, 100 is complete control) [11]: 90; Plant response rating, Ryegrass, Italian [12]: 0; Ryegrass, Italian plant response rating (0 to 100 scale, 0 is no effect, 100 is complete control) [12]: 0; Plant response rating, Ragweed [13]: 0; Ragweed plant response rating (0 to 100 scale, 0 is no effect, 100 is complete control) [13]: 0; Plant response rating, Barnyardgrass [14]: 0; Barnyardgrass plant response rating (0 to 100 scale, 0 is no effect, 100 is complete control) [14]: 30; Plant response rating, Pigweed [15]: 0; Pigweed plant response rating (0 to 100 scale, 0 is no effect, 100 is complete control) [15]: 0; Plant response rating, Sedge, Umbrella [16]: 0; Plant response rating, Barnyardgrass [17]: 0; Plant response rating, Rice (rice (Oryra sativa)): 0; Plant response rating, Ducksalad [18]: 20 |
